Reference: patent publication US12048691B2 (SPERO THERAPEUTICS, INC., priority 2020, dated 2024)
Converted amounts (≈) assume the structure as drawn.

What was measured:
E. coli = assay: Susceptibility of E. coli from urinary tract infections, 18 EU countries 2020 (STEWARD); format: cell-based
Description: The study assessed the prevalence of resistance and evaluated the activity of oral tebipenem (TBP) and comparators against EC from urinary tract infections.
Results were interpreted using EUCAST criteria. […] ESBL phenotypes were determined by CLSI criteria and sequenced to identify CTX-M-15 genotype and clonal complex ST131.

[1] = test system: other methicillin-susceptible coagulase-negative staphylococci (MSCONS); assay: Broth microdilution against Gram-positive clinical isolates; format: cell-based; conditions: 29 isolates
Description: The purpose of this study was to investigate the in vitro activity of tebipenem and comparator agents, including ertapenem and meropenem, against a recent collection of Gram-positive isolates associated with clinical infections. The susceptibility of 580 Gram-positive organisms were tested, including: […] Bacterial species were identified by JMI Laboratories using standard microbiology methods and matrix-assisted laser desorption ionization-time of flight mass spectrometry (Bruker Daltonics, Bremen, Germany). […] Isolates were tested in a central laboratory (JMI Laboratories) for antimicrobial susceptibility using the CLSI […] (2018) reference broth microdilution method. JMI Laboratories produced frozen-form 96-well panels and used cation-adjusted Mueller-Hinton broth (CA-MHB) as the testing medium. […] Quality control organisms include Escherichia coli ATCC 25922, Escherichia coli ATCC 35218, Enterococcus faecalis ATCC 29212, Pseudomonas aeruginosa ATCC 27853, and Staphylococcus aureus ATCC 29213 were tested concurrently with clinical isolates.

C[C@@H](O)[C@H]1C(=O)N2C(C(=O)O)=C(S[C@@H]3CN[C@H](C(=O)Nc4cccc(C(=O)O)c4)C3)[C@H](C)[C@H]12 [Ertapenem, ertapenem]
MIC90 (E. coli; Escherichia coli, all E. coli (764) from UTIs): 0.03 µg/mL (≈ 0.0631 µM)
Susceptibility rate (E. coli; all E. coli, EUCAST criteria): 99.9%
MIC90 [1]: 1 µg/mL (≈ 2.1 µM)
